Key:
[1] = target: T1, truncated His-MBP-Tev-KLHDC2 (residues 1-363) (Homo sapiens, UniProt Q9Y2U9); assay: KLHDC2 HTRF binding assay; conditions: 1 nM KLHDC2 (residues 1-363), fluorescein-labeled diglycine peptide probe
T1 construct: truncated His -MBP-Tev-KLHDC2 (residues 1-363) purified from E. coli; made in house; host or cells: E. coli
T1 sequence (Q9Y2U9 1-363): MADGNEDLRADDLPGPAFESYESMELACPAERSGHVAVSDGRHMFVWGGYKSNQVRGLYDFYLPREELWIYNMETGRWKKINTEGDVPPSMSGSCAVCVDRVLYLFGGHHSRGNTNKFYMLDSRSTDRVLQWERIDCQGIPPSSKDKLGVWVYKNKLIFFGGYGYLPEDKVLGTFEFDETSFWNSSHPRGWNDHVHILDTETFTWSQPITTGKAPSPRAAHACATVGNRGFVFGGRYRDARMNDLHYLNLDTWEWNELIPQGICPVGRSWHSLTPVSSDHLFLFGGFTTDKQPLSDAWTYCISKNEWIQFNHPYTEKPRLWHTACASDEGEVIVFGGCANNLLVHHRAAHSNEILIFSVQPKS

[2] = target: T1, truncated His-MBP-Tev-KLHDC2 (residues 1-363); assay: KLHDC2 FP competition binding assay; conditions: 15 nM KLHDC2 (residues 1-363), 10 nM fluorescein-labeled diglycine peptide probe, read-out: KLHDC2 binding Human FP: average external IC50

SMILES | IC50 [1] [µM] | IC50 [2] [µM]
O=C(O)Cn1cc(-c2cnc(N3CCOCC3)nc2)ccc1=O [I-361] | > 5 | > 5
Cc1ccc(C)c(-c2ccc(O)c(CC(=O)O)c2)c1 [I-338] | > 5 | > 5
Cc1ccc(CC(C)(C)O)cc1-c1ccc(=O)n(CC(=O)O)c1 [I-308] | > 5 | > 5
O=C(O)Cc1cc(NC(=O)[C@H]2CCCN(c3cccnc3)C2)ccc1F [I-33] | 0.05 to 0.5 | 0.5 to 5
COc1ncc(-c2ccc(=O)n(CC(=O)O)c2)cn1 [I-362] | > 5 | > 5
O=C(O)Cn1cc(N2CC[C@@]3(CCCN(c4cccnc4)C3)C2=O)ccc1=O [I-14] | > 5 | > 5
CCOC(=O)Cn1cc(NC(=O)c2cccc(-c3cncc(CCCCCCNC(=O)OC(C)(C)C)c3)c2)ccc1=O [I-158] | > 5 | > 5
O=C(O)Cc1ccccc1O [I-425] | > 5 | > 5
Cc1ccc(C)c(-c2cccn(CC(=O)O)c2=O)c1 [I-390] | > 5 | > 5
COc1ccc(C#N)cc1-c1ccc(=O)n(CC(=O)O)c1 [I-341] | > 5 | > 5
CCCc1cccc(-c2ccc(=O)n(CC(=O)O)c2)c1 [I-358] | > 5 | > 5
CN(C)C(=O)Cc1ccc(=O)n(CC(=O)O)c1 [I-284] | > 5 | > 5
O=C(O)Cn1cc(CC(=O)N2CCc3ccccc32)ccc1=O [I-277] | > 5 | > 5
Cn1ccc(N2CC(C(=O)O)CC2=O)n1 (stereo not shown) [I-233] | > 5 | > 5
O=C(O)Cn1cc(NC(=O)[C@@H]2CCCN(c3cccnc3)CC2)ccc1=O [I-29] | 0.5 to 5 | > 5
O=C(O)Cn1cc(CC(=O)N2CCCCC2)ccc1=O [I-290] | > 5 | > 5
CN(C)C(=O)c1ccc(-c2ccc(=O)n(CC(=O)O)c2)cc1F [I-384] | > 5 | > 5
O=C(O)Cc1cc(NC(=O)c2cccc(-c3cccnc3)c2)ccc1F [I-55] | 0.5 to 5 | > 5
O=C(O)Cn1cc(-c2cccc(CN3CCCCC3)c2)ccc1=O [I-303] | > 5 | > 5
O=C(O)Cc1cnn2ccccc12 [I-223] | > 5 | > 5
Cc1sc2c(c1C)C(c1ccc(Cl)cc1)=N[C@@H](CC(=O)NCCCCCCc1cncc(-c3cccc(C(=O)Nc4ccc(=O)n(CC(=O)O)c4)c3)c1)c1nnc(C)n1-2 [I-477] | < 0.05 | < 0.05
Cc1ccc(C(F)(F)F)cc1-c1ccc(=O)n(CC(=O)O)c1 [I-350] | > 5 | > 5
CC(C(=O)O)N1CCCCC1=O (stereo not shown) [I-232] | > 5 | > 5
O=C(O)Cn1cc(-c2cncc(OCc3ccccc3)c2)ccc1=O [I-301] | > 5 | > 5
O=C(O)Cn1cc(-c2ccccc2C(F)(F)F)ccc1=O [I-369] | > 5 | > 5
COc1ncc(-c2ccc(=O)n(CC(=O)O)c2)cc1F [I-365] | > 5 | > 5
Cc1ccc(C#N)c(-c2ccc(=O)n(CC(=O)O)c2)c1 [I-364] | > 5 | > 5
O=C(O)Cc1cc(NC(=O)[C@H]2CCCN(c3cccnc3)C2)ccc1Cl [I-35] | 0.05 to 0.5 | 0.5 to 5
CCOC(=O)Cn1cc(NC(=O)c2cc(CCCCCCN)cc(-c3cccnc3)c2)ccc1=O [I-157] | > 5 | > 5

Other lines, results leading:

IC50 [1] [µM] | IC50 [2] [µM] | SMILES
> 5 | > 5 | O=C(O)Cn1cc(N2Cc3ccc(-c4cccnc4)cc3C2=O)ccc1=O [I-81]
0.5 to 5 | 0.5 to 5 | NCCCCCCc1cc(C(=O)Nc2ccc(=O)n(CC(=O)O)c2)cc(-c2cccnc2)c1 [I-166]
> 5 | > 5 | N#Cc1cccc(OCC(=O)Nc2ccc(=O)n(CC(=O)O)c2)c1 [I-258]
> 5 | > 5 | O=C(O)Cn1cc(Nc2ncnc3c(-c4cccnc4)cccc23)ccc1=O [I-87]
0.5 to 5 | > 5 | COc1cc(-c2cncs2)ccc1C(=O)Nc1ccc(=O)n(CC(=O)O)c1 [I-154]
0.5 to 5 | > 5 | Nc1ccc2cc(C(=O)Nc3ccc(=O)n(CC(=O)O)c3)ccc2c1 [I-151]
> 5 | > 5 | O=C(O)Cn1cc(NC(=O)c2cccc(-c3ccncc3)c2)ccc1=O [I-280]
> 5 | > 5 | CCc1ccc(C(=O)CCC(=O)Nc2ccc(=O)n(CC(=O)O)c2)cc1 [I-253]
> 5 | > 5 | Cc1cccc(-c2cccc(C(=O)Nc3ccc(=O)n(CC(=O)O)c3)c2)c1 [I-294]
> 5 | > 5 | NC(=O)Cc1cccc(-c2ccc(=O)n(CC(=O)O)c2)c1 [I-302]
0.5 to 5 | > 5 | O=C(O)Cn1cc(NC(=O)c2ccc(-c3ccccc3)cc2)ccc1=O [I-212]
0.05 to 0.5 | 0.5 to 5 | CCN(CC)c1ccc2cc(C(=O)Nc3ccc(=O)n(CC(=O)O)c3)c(=O)oc2c1 [I-237]
> 5 | > 5 | O=C(O)Cn1cc(Nc2nccc3c(-c4cccnc4)cccc23)ccc1=O [I-93]
> 5 | > 5 | CCOC(=O)Cn1cc(NC(=O)c2ccc(CCCCCCN)c(-c3cccnc3)c2)ccc1=O [I-147]
> 5 | > 5 | O=C(O)Cn1cc(-c2cccc(O)c2)ccc1=O [I-368]
0.5 to 5 | > 5 | CCc1ccc(C(=O)Nc2ccc(=O)n(CC(=O)O)c2)cc1-c1ccccc1 [I-182]
> 5 | > 5 | Cc1cc(C(=O)Nc2ccc(=O)n(CC(=O)O)c2)sc1-c1cccnc1 [I-171]
> 5 | > 5 | COc1ccccc1OCC(=O)Nc1ccc(=O)n(CC(=O)O)c1 [I-273]
0.5 to 5 | 0.5 to 5 | COc1cc(-c2ccsc2)ccc1C(=O)Nc1ccc(=O)n(CC(=O)O)c1 [I-143]
> 5 | > 5 | CN(CC(C)(C)C(=O)Nc1ccc(=O)n(CC(=O)O)c1)c1cccnc1 [I-36]
> 5 | > 5 | O=C(O)Cn1cc(-c2cccc3ccccc23)ccc1=O [I-409]
> 5 | > 5 | O=C(O)Cn1cc(NC(=O)c2ccc(-c3ccccc3Cl)cc2)ccc1=O [I-197]
> 5 | > 5 | COc1ccc(-c2ccccc2)cc1C(=O)Nc1ccc(=O)n(CC(=O)O)c1 [I-243]
> 5 | > 5 | COc1cc2ccccc2cc1C(=O)Nc1ccc(=O)n(CC(=O)O)c1 [I-320]
0.5 to 5 | > 5 | Cc1ccc(C(=O)Nc2ccc(=O)n(CC(=O)O)c2)nc1-c1ccccc1 [I-173]
0.05 to 0.5 | 0.5 to 5 | COc1cc(-c2ccc(Cl)cc2)ccc1C(=O)Nc1ccc(=O)n(CC(=O)O)c1 [I-134]
> 5 | > 5 | O=C(O)Cn1cc(NC(=O)c2ccc(-c3ccccc3Cl)o2)ccc1=O [I-255]
> 5 | > 5 | Cc1cccc(-c2ccc(=O)n(CC(=O)O)c2)c1 [I-422]
> 5 | > 5 | O=C(O)Cn1cc(NC(=O)COc2cccnc2)ccc1=O [I-250]
> 5 | > 5 | CN(C)C(=O)c1ccc(-c2ccc(=O)n(CC(=O)O)c2)c(F)c1 [I-383]

Source: US20250214969A1, “PROTEIN DEGRADERS AND USES THEREOF” (Kymera Therapeutics, Inc., priority 2022, published 2025)
